ChEMBL document CHEMBL5634069, “Exploring N-myristoyltransferase as a promising drug target against parasitic neglected tropical diseases” (Eur J Med Chem, 2023)
Values belong to the molecule of their own block, whether it stands above or below them.

Columns and labels:
[1] = Inhibition of Trypanosoma brucei NMT by scintillation proximity assay
[2] = tested on: Trypanosoma brucei brucei; assay: Antitrypanosomal activity against bloodstream Trypanosoma brucei brucei s427 assessed as reduction in parasite growth measured after 72 hrs by inverted microscope based analysis; assay type: functional, organism-based; conditions: s427, 72 h
Leishmania donovani [3] = assay: Antileishmanial activity against Leishmania donovani promastigote assessed as reduction in parasite growth measured after 72 hrs; assay type: functional, organism-based
Trypanosoma cruzi [4] = assay: Antiprotozoal activity against Trypanosoma cruzi amastigotes measured after 24 hrs; assay type: functional, organism-based
Trypanosoma cruzi [5] = assay: Antiprotozoal activity against Trypanosoma cruzi epimastigotes assessed as reduction in parasite growth relative to control; assay type: functional; parameters: scale not given: the % may be the effect or the level left
Leishmania amazonensis = assay: Antileishmanial activity against Leishmania amazonensis IFLA/BR/1967/PH8 promastigote; assay type: functional, organism-based
Leishmania donovani [6] = assay: Antileishmanial activity against Leishmania donovani amastigotes; assay type: functional, organism-based
[7] = Binding affinity to Leishmania donovani NMT assessed as apparent inhibition constant; conditions: read-out: Ki(app)
[8] = Inhibition of N terminal his-6 tagged recombinant Trypanosoma brucei NMT incubated for 30 mins using biotinylated peptide substrate by scintillation counter analysis
[9] = Cytotoxicity against mouse RAW 264 cells by alamar blue staining based analysis; assay type: functional; conditions: RAW264.7, read-out: ED50 (the source's name)
[10] = Inhibition of N terminal his-6 tagged recombinant Trypanosoma brucei NMT using CAP5.5 peptide as substrate incubated for 10 mins
Trypanosoma brucei [11] = assay: Antiprotozoal activity against blood stream form Trypanosoma brucei assessed as reduction in number of viable parasites measured after 72 hrs by Alamar blue staining based analysis; assay type: functional; conditions: read-out: ED50 (the source's name)
Leishmania donovani [12] = assay: Antileishmanial activity against Leishmania donovani MHOM/ET/67/HU3 axenic amastigotes; assay type: functional, organism-based
Trypanosoma brucei [13] = assay: Antitrypanosomal activity against Trypanosoma brucei assessed as reduction in parasite growth; assay type: functional, organism-based
Plasmodium falciparum = assay: Antiplasmodial activity against synchronized late stage trophozoite Plasmodium falciparum 3D7 assessed as reduction in parasitemia relative to control; assay type: functional; parameters: scale not given: the % may be the effect or the level left
[14] = target: T1, Glycylpeptide N-tetradecanoyltransferase (Plasmodium falciparum, UniProt Q9U419); assay: Inhibition of recombinant N-terminal Plasmodium falciparum NMT expressed in Escherichia coli using peptide substrate preincubated for 5 mins followed by substrate addition and measured after 30 mins by scintillation proximity assay
T1 sequence (Q9U419 whole entry): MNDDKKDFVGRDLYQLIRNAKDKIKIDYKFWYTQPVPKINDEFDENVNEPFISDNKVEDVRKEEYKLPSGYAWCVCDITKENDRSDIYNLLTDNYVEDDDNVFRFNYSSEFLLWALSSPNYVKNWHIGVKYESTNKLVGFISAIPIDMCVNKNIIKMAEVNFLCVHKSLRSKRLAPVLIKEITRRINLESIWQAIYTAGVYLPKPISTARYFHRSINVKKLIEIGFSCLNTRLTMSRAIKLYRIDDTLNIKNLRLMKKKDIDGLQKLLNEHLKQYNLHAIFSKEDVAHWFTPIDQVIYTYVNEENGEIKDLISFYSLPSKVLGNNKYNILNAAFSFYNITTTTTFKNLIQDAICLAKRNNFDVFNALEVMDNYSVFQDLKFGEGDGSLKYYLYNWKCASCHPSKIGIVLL

[15] = Inhibition of Leishmania donovani NMT using 3H-myristoyl CoA as substrate preincubated for 15 mins followed by substrate addition and measured after 80 mins
[16] = Inhibition of Trypanosoma brucei NMT
[17] = target: T2, Glycylpeptide N-tetradecanoyltransferase 1 (Homo sapiens, UniProt P30419); assay: Inhibition of human NMT
T2 sequence (P30419 whole entry): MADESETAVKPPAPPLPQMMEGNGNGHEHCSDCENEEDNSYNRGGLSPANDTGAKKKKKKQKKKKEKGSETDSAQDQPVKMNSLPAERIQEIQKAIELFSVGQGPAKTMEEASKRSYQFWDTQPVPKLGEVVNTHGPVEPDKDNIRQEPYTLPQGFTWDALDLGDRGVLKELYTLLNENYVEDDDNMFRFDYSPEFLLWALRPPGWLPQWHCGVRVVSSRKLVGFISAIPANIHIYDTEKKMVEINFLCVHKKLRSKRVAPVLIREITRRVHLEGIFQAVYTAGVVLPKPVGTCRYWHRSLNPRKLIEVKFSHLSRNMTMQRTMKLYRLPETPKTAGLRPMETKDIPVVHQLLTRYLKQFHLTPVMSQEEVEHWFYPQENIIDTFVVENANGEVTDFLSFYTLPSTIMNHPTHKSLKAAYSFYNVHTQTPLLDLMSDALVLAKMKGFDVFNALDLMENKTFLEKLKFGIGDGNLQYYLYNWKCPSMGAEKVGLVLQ

Structure (SMILES): Cc1nn(C)c(C)c1NS(=O)(=O)c1c(Cl)cc(Br)cc1Cl
- IC50 [1]: 0.34 µM

- IC50 [2]: 11.8 µM
Structure (SMILES): Cc1nn(C)c(Cl)c1S(=O)(=O)Nc1ccc(Oc2ccc(F)cc2)cc1
- IC50 (Leishmania donovani [3]): 45.3 µM

- EC50 (Trypanosoma cruzi [4]): 1.83 µM
Structure (SMILES): Cc1c(NS(=O)(=O)c2c(Cl)cc(-c3ccnc(N4CCNCC4)c3)cc2Cl)c(CC(C)C)nn1C [ZELENIRSTAT]
- Activity (Trypanosoma cruzi [5]): 0.43%

Structure (SMILES): O=C(C[Se]C(=O)c1ccccc1)Nc1ccc(Br)cc1
- IC50 (Leishmania amazonensis): 5.5 µM

Structure (SMILES): O=C(C[Se]C(=O)c1ccccc1)Nc1ccc(Cl)cc1
- IC50 (Leishmania amazonensis): 7.08 µM

- EC50 (Leishmania donovani [6]): 0.15 µM
- Ki [7]: 0.0063 µM
Structure (SMILES): Cc1nn(C)c(C)c1NS(=O)(=O)c1c(Cl)cc(-c2ccnc(N3CCN(C)CC3)c2)cc1Cl

- EC50 (Trypanosoma brucei [11]): 16 µM
Structure (SMILES): Cc1c2c(c(O)c3c(O)cccc13)C(=O)OC2c1cc(O)c(C(N)=O)c(O)c1O (configuration not stated)
- IC50 [8]: 0.77 µM
- EC50 [9]: 328 µM
- IC50 [10]: 0.46 µM

- EC50 (Leishmania donovani [12]): 7.1 µM
Structure (SMILES): Cc1nn(C)c(C)c1N(C)S(=O)(=O)c1c(Cl)cc(CCCC2CCN(C)CC2)cc1Cl

- EC50 (Trypanosoma brucei [13]): 0.007 µM
Structure (SMILES): Cc1cc(CN2C(=O)COc3cc(CCCOC4CCNCC4)ccc32)no1

- IC50 [2]: 14.7 µM
Structure (SMILES): COc1ccc(Br)c(-c2nnc(-c3ccccc3NS(=O)(=O)c3ccc(Cl)cc3)o2)c1

Structure (SMILES): O=C(O)C1=CC(=C(c2ccc(O)c(C(=O)O)c2)c2ccc(O)c(C(=O)O)c2)C=CC1=O [AURINTRICARBOXYLIC ACID]
- IC50 [8]: 0.74 µM

Structure (SMILES): O=C(C[Se]C(=O)c1ccc(Cl)cc1)Nc1ccc(Cl)cc1
- IC50 (Leishmania amazonensis): 9.12 µM

- IC50 [14]: 53 µM
Structure (SMILES): O=C(Nc1nc2cc(F)ccc2s1)[C@H]1CC[C@@H](NCc2ccc3ccccc3c2)CC1
- Activity (Plasmodium falciparum): 80%

- IC50 [15]: 0.16 µM
Structure (SMILES): c1cncc(CCNCc2cccc(-c3cccc(CN4CCc5ncsc5C4)c3)c2)c1

- IC50 [2]: 9.36 µM
Structure (SMILES): Cc1ccc(S(=O)(=O)Nc2ccccc2Sc2ncnc3c(C)csc23)cc1
- IC50 (Leishmania donovani [3]): 32.1 µM

- IC50 [14]: 53 µM
Structure (SMILES): CN(C)C(=O)c1ccc2nc(NC(=O)[C@@H]3CCC[C@H](NCc4ccc5ccoc5c4)C3)sc2c1

Structure (SMILES): Cc1cc(CN2C(=O)COc3ccccc32)no1
- IC50 [16]: 2.9 µM

- IC50 [14]: 30 µM
Structure (SMILES): O=C(Nc1nc2ccccc2s1)[C@H]1CC[C@@H](NCc2ccc3ccccc3c2)CC1
- Activity (Plasmodium falciparum): 80%

Structure (SMILES): CCc1ccc(NC(=O)C[Se]C(=O)c2ccc(Cl)cc2)cc1
- IC50 (Leishmania amazonensis): 7.41 µM

- EC50 (Trypanosoma brucei [13]): 0.007 µM
Structure (SMILES): Cc1cc(CN2C(=O)COc3c(CCCCC4CCN(C)CC4)cccc32)no1

- IC50 [17]: 24 µM
- EC50 (Trypanosoma brucei [13]): 0.007 µM
Structure (SMILES): Cc1cc(CN2C(=O)COc3cc(CCCOC[C@@H]4CCCN4C)ccc32)no1
- IC50 [16]: 0.009 µM
